{"source": "paper doi:10.1101/2025.03.14.643404", "about": "“A Bivalent Molecular Glue Linking Lysine Acetyltransferases to Oncogene-induced Cell Death” (bioRxiv, 2025)", "key": {"[1]": {"system": "H3K27ac", "experiment": "ChIP-seq for H3K27ac in SUDHL5", "assay_type": "cell-based, human", "details": "SUDHL5, 1 nM, 1 hour", "description": "25–30 million cells were treated with TCIP3 or DMSO for indicated timepoints. Cells were washed in PBS containing TCIP3 or DMSO and crosslinked for 11 min in CiA Fix Buffer (50 mM HEPES pH 8.0, 1 mM EDTA, 0.5 mM EGTA, 100 mM NaCl) with addition of formaldehyde to a final concentration of 1%. The crosslinking reaction was quenched by glycine added at 0.125 M final concentration. Crosslinked cells were centrifuged at 1,000 × g for 5 min. […] Library size distributions were confirmed using an Agilent Bioanalyzer and High Sensitivity DNA reagents (Agilent 5067) and concentrations determined by qPCR. […]\nThe data quality was checked using fastq (https://www.bioinformatics.babraham.ac.uk/projects/fastqc/). The raw reads were trimmed from adapters with cutadapt (parameters: -a […] -A […]) and raw reads were aligned to hg38 human genome assembly using bowtie2 (parameters: --local --maxins 1000). Low quality reads, duplicated reads and reads with multiple alignments were removed using samtools[120] and Picard (https://broadinstitute.github.io/picard/). macs2[121] was used to map position of peaks with FDR cutoff of 0.05. […] All browser tracks and metaprofiles shown were calculated with sequence-depth-normalized, replicate-merged (bigWigMerge[125]) and, for ChIP-seq, input-subtracted data (deeptools bigWigCompare). […]"}, "[2]": {"system": "SUDHL5 cells", "experiment": "RNA-seq differential genes in SUDHL5", "assay_type": "cell-based, human", "details": "SUDHL5, 1 nM, 30 min, 1, 2 and 4 hours; adj. P ≤ 0.05, |log2(fold change)| ≥ 0.5", "description": "Cells were plated at 1M/mL and harvested in TRIsure (Bioline 38033). RNA was extracted using Direct-zol RNA MicroPrep columns (Zymo R2062) treated with DNAseI. cDNA was prepared (Meridian Bioscience BIO-65054) and used for qPCR (Meridian Bioscience BIO-94050) using an AppliedBiosystems QuantStudio 6Pro. Primer sequences were the following:\nFor sequencing library preparation, rRNA was depleted (NEB E7400) and total RNA prepared into paired-end libraries (NEB E7765) and indexed (NEB E7335). Library size distributions were confirmed using an Agilent Bioanalyzer and High Sensitivity DNA reagents (Agilent 5067) and concentrations determined by qPCR. […]\nRaw reads were checked for quality using fastqc (https://www.bioinformatics.babraham.ac.uk/projects/fastqc/) and trimmed from adapters using cutadapt[111] using parameters cutadapt -a […] -b […] --nextseq-trim=20 --minimum-length 1. Transcripts were quantified using kallisto[112] against the human Gencode v33 indexed transcriptome and annotations. […] Re-processed published datasets from the Sequence Read Archive (SRA) were the following: TCIP1 – SRX20228454, SRX20228455, SRX202284546, SRX20228457, SRX20228458, SRX20228459, SRX20228448, SRX20228449, SRX20228450; CDK-TCIP1 – SRX22117221, SRX22117222, SRX22117223, SRX22117224, SRX22117225, SRX22117226, SRX22117227, SRX22117228, SRX22117229)."}}, "data": [{"smiles": "CNC(=O)COc1cc2cc(Nc3nc(N4CCC(C(=O)N5CCN(CCC(=O)N6CCC(n7nc(N8CCCc9cc(-c%10cnn(C)c%10)c(C(F)F)cc98)c8c7CCN(C(=O)NC)C8)CC6)CC5)CC4)ncc3Cl)cc(OC)c2n(C)c1=O", "note": "[TCIP3]", "values": [{"measurement": "H3K27ac peaks gained", "setting": "[1]", "value": 533}, {"measurement": "H3K27ac peaks lost", "setting": "[1]", "value": "5,216"}, {"measurement": "number of genes decreased", "setting": "[2]", "value": "2,126"}, {"measurement": "number of genes induced", "setting": "[2]", "value": "1,510"}]}]}
